# Experimental data from ChEMBL document CHEMBL1135951, “Potential anxiolytic agents. Part 4: novel orally-active N(5)-substituted pyrido[1,2-a]benzimidazoles with high GABA-A receptor affinity” (Bioorg Med Chem Lett, 2002).
# Organism: Rattus norvegicus
# Test: animal or person
# Details: ip, read-out: MED
# Description: Minimum effective dose required for anticonflict in rat after intraperitoneal administration of the compound
row,Structure (SMILES),minimal effective dose
1,CN1C(=O)CN=C(c2ccccc2)c2cc(Cl)ccc21 [DIAZEPAM],5 mg/kg

# Organism: Rattus norvegicus
# Test: Ratio of minimum effective dose for potentiation of EtOH-induced sleep time to anticonflict effect in rat
# Assay type: functional
# Details: not given
row,Structure (SMILES),Ratio
1,CCOCN1C2=C(C(=O)Nc3ccc(F)cc3F)C(=O)CCN2c2ccc(F)cc21,1
2,CCOCN1C2=C(C(=O)Nc3ccccc3F)C(=O)CCN2c2ccc(F)cc21,1
3,COCCOCN1C2=C(C(=O)Nc3ccccc3F)C(=O)CCN2c2ccc(F)cc21,1

# System: Mus musculus
# Test: In vivo effective dose required or inhibition of pentylenetetrazole (PTZ)-induced seizures in mice intraperitoneally
# Assay type: functional
# Details: ip
row,Structure (SMILES),ED50
1,CCOCN1C2=C(C(=O)Nc3ccccc3F)C(=O)CCN2c2ccc(F)cc21,0.01 mg/kg

# Organism: Mus musculus
# Test: animal or person
# Details: ip
row,Structure (SMILES),ED50
1,CN1C(=O)CN=C(c2ccccc2)c2cc(Cl)ccc21 [DIAZEPAM],0.11 mg/kg

# System: Mus musculus
# Test: Effective dose required for motor impairment in the horizontal screen in mouse intraperitoneally
# Assay type: functional
# Details: not given
row,Structure (SMILES),ED50
1,COCCOCN1C2=C(C(=O)Nc3ccccc3F)C(=O)CCN2c2ccc(F)cc21,0.07

# Same assay, conditions: Mus musculus, ip; read-out: ED50
row,Structure (SMILES),ED50
1,CCOCN1C2=C(C(=O)Nc3ccc(F)cc3F)C(=O)CCN2c2ccc(F)cc21,< 1 mg/kg
2,CCOCN1C2=C(C(=O)Nc3ccccc3F)C(=O)CCN2c2ccc(F)cc21,0.3 mg/kg
3,CN1C(=O)CN=C(c2ccccc2)c2cc(Cl)ccc21 [DIAZEPAM],0.1 mg/kg

# Biological target: T1, GABA-A receptor; anion channel (Rattus norvegicus) (UniProt O09028+P15431+P18506+P18508+P19969+P20236+P23574+P23576+P28471+P28473+P30191+P62813+P63079+P63138+Q91ZM7+Q9ES14)
# Test: Ratio of the binding in the absence and presence of GABA was determined.
# Assay type: protein-complex assay
# Details: not given
row,Structure (SMILES),GABA shift
1,CN(C)CCCN1C2=C(C(=O)Nc3ccccc3F)C(=O)CCN2c2ccc(F)cc21,1.4
2,CCOCN1C2=C(C(=O)Nc3c(F)cccc3F)C(=O)CCN2c2ccc(F)cc21,1.6
3,CN(C)CCN1C2=C(C(=O)Nc3ccccc3F)C(=O)CCN2c2ccc(F)cc21,2.7
4,COCCNCCN1C2=C(C(=O)Nc3ccccc3F)C(=O)CCN2c2ccc(F)cc21,1.8
5,O=C1CCN2C(=C1C(=O)Nc1ccccc1F)N(CCN1CCOCC1)c1cc(F)ccc12,2.2
6,O=C(Nc1ccccc1F)C1=C(O)CCn2c1nc1cc(F)ccc12,1.8
7,CCOCN1C2=C(C(=O)Nc3ccc(F)cc3F)C(=O)CCN2c2ccc(F)cc21,2
8,CCOCN1C2=C(C(=O)Nc3ccccc3F)C(=O)CCN2c2ccc(F)cc21,1.2
9,COCCOCN1C2=C(C(=O)Nc3ccccc3F)C(=O)CCN2c2ccc(F)cc21,2.2

# Organism: Mus musculus
# Test: Effective dose required for inhibition of pentylenetetrazole (PTZ)-induced seizures in mice perorally
# Assay type: functional
# Details: po
row,Structure (SMILES),ED50
1,CN(C)CCCN1C2=C(C(=O)Nc3ccccc3F)C(=O)CCN2c2ccc(F)cc21,30 mg/kg
2,CCOCN1C2=C(C(=O)Nc3c(F)cccc3F)C(=O)CCN2c2ccc(F)cc21,3 mg/kg
3,CN(C)CCN1C2=C(C(=O)Nc3ccccc3F)C(=O)CCN2c2ccc(F)cc21,≤ 3 mg/kg
4,COCCNCCN1C2=C(C(=O)Nc3ccccc3F)C(=O)CCN2c2ccc(F)cc21,1 mg/kg
5,O=C1CCN2C(=C1C(=O)Nc1ccccc1F)N(CCN1CCOCC1)c1cc(F)ccc12,30 mg/kg
6,O=C(Nc1ccccc1F)C1=C(O)CCn2c1nc1cc(F)ccc12,> 30 mg/kg
7,CCOCN1C2=C(C(=O)Nc3ccc(F)cc3F)C(=O)CCN2c2ccc(F)cc21,< 3 mg/kg
8,CCOCN1C2=C(C(=O)Nc3ccccc3F)C(=O)CCN2c2ccc(F)cc21,0.04 mg/kg
9,COCCOCN1C2=C(C(=O)Nc3ccccc3F)C(=O)CCN2c2ccc(F)cc21,0.1 mg/kg

# Organism: Mus musculus
# Test: Ratio of effective dose required for motor impairment in the horizontal screen to the inhibition of pentylenetetrazole (PTZ)-induced seizures in mice
# Assay type: functional
# Details: not given
row,Structure (SMILES),Ratio
1,CCOCN1C2=C(C(=O)Nc3ccc(F)cc3F)C(=O)CCN2c2ccc(F)cc21,3
2,CCOCN1C2=C(C(=O)Nc3ccccc3F)C(=O)CCN2c2ccc(F)cc21,675
3,COCCOCN1C2=C(C(=O)Nc3ccccc3F)C(=O)CCN2c2ccc(F)cc21,300

# System: Mus musculus
# Test: Effective dose required for inhibition of pentylenetetrazole (PTZ)-induced seizures in mice intraperitoneally
# Assay type: functional
# Details: ip
row,Structure (SMILES),ED50
1,CN(C)CCCN1C2=C(C(=O)Nc3ccccc3F)C(=O)CCN2c2ccc(F)cc21,3 mg/kg
2,CCOCN1C2=C(C(=O)Nc3c(F)cccc3F)C(=O)CCN2c2ccc(F)cc21,1 mg/kg
3,CN(C)CCN1C2=C(C(=O)Nc3ccccc3F)C(=O)CCN2c2ccc(F)cc21,0.5 mg/kg
4,COCCNCCN1C2=C(C(=O)Nc3ccccc3F)C(=O)CCN2c2ccc(F)cc21,1 mg/kg
5,O=C1CCN2C(=C1C(=O)Nc1ccccc1F)N(CCN1CCOCC1)c1cc(F)ccc12,1 mg/kg
6,O=C(Nc1ccccc1F)C1=C(O)CCn2c1nc1cc(F)ccc12,≤ 1 mg/kg
7,CCOCN1C2=C(C(=O)Nc3ccc(F)cc3F)C(=O)CCN2c2ccc(F)cc21,≤ 1 mg/kg
8,CCOCN1C2=C(C(=O)Nc3ccccc3F)C(=O)CCN2c2ccc(F)cc21,0.01 mg/kg
9,COCCOCN1C2=C(C(=O)Nc3ccccc3F)C(=O)CCN2c2ccc(F)cc21,0.003 mg/kg

# System: Mus musculus
# Test: In vivo effective dose required in vivo for inhibition of pentylenetetrazole (PTZ)-induced seizures in mice perorally
# Assay type: functional
# Details: po
row,Structure (SMILES),ED50
1,CCOCN1C2=C(C(=O)Nc3ccc(F)cc3F)C(=O)CCN2c2ccc(F)cc21,< 3 mg/kg

# Organism: Rattus norvegicus
# Test: animal or person
# Details: po, read-out: MED
# Description: Minimum effective dose required for anticonflict in rat after peroral administration of the compound
row,Structure (SMILES),minimal effective dose
1,CN1C(=O)CN=C(c2ccccc2)c2cc(Cl)ccc21 [DIAZEPAM],> 10 mg/kg

# System: Mus musculus
# Test: In vivo effective dose required for inhibition of pentylenetetrazole (PTZ)-induced seizures in mice perorally
# Assay type: functional
# Details: not given
row,Structure (SMILES),ED50
1,COCCOCN1C2=C(C(=O)Nc3ccccc3F)C(=O)CCN2c2ccc(F)cc21,0.1

# Same assay, conditions: po
row,Structure (SMILES),ED50
1,CCOCN1C2=C(C(=O)Nc3ccccc3F)C(=O)CCN2c2ccc(F)cc21,0.04 mg/kg
2,CN1C(=O)CN=C(c2ccccc2)c2cc(Cl)ccc21 [DIAZEPAM],0.5 mg/kg

# Organism: Rattus norvegicus
# Test: Minimum effective dose required for anticonflict in rat perorally
# Assay type: functional
# Details: po, read-out: MED
row,Structure (SMILES),minimal effective dose
1,CN(C)CCCN1C2=C(C(=O)Nc3ccccc3F)C(=O)CCN2c2ccc(F)cc21,> 10 mg/kg
2,CCOCN1C2=C(C(=O)Nc3c(F)cccc3F)C(=O)CCN2c2ccc(F)cc21,> 10 mg/kg
3,CN(C)CCN1C2=C(C(=O)Nc3ccccc3F)C(=O)CCN2c2ccc(F)cc21,3 mg/kg
4,COCCNCCN1C2=C(C(=O)Nc3ccccc3F)C(=O)CCN2c2ccc(F)cc21,10 mg/kg
5,O=C(Nc1ccccc1F)C1=C(O)CCn2c1nc1cc(F)ccc12,> 30 mg/kg
6,CCOCN1C2=C(C(=O)Nc3ccc(F)cc3F)C(=O)CCN2c2ccc(F)cc21,0.1 mg/kg
7,CCOCN1C2=C(C(=O)Nc3ccccc3F)C(=O)CCN2c2ccc(F)cc21,0.4 mg/kg
8,COCCOCN1C2=C(C(=O)Nc3ccccc3F)C(=O)CCN2c2ccc(F)cc21,3 mg/kg

# Organism: Mus musculus
# Test: Effective dose required for motor impairment in the horizontal screen in mouse perorally
# Assay type: functional
# Details: not given
row,Structure (SMILES),ED50
1,COCCOCN1C2=C(C(=O)Nc3ccccc3F)C(=O)CCN2c2ccc(F)cc21,30

# Same assay, conditions: Mus musculus, po; read-out: ED50
row,Structure (SMILES),ED50
1,CCOCN1C2=C(C(=O)Nc3ccc(F)cc3F)C(=O)CCN2c2ccc(F)cc21,10 mg/kg
2,CCOCN1C2=C(C(=O)Nc3ccccc3F)C(=O)CCN2c2ccc(F)cc21,27 mg/kg
3,CN1C(=O)CN=C(c2ccccc2)c2cc(Cl)ccc21 [DIAZEPAM],6.3 mg/kg

# System: Rattus norvegicus
# Test: In vivo minimum effective dose required for potentiation of EtOH-induced sleep time in rat
# Assay type: functional
# Details: not given
row,Structure (SMILES),MED
1,COCCOCN1C2=C(C(=O)Nc3ccccc3F)C(=O)CCN2c2ccc(F)cc21,3

# Same assay, conditions: Rattus norvegicus; read-out: MED
row,Structure (SMILES),minimal effective dose
1,CCOCN1C2=C(C(=O)Nc3ccc(F)cc3F)C(=O)CCN2c2ccc(F)cc21,0.1 mg/kg
2,CCOCN1C2=C(C(=O)Nc3ccccc3F)C(=O)CCN2c2ccc(F)cc21,0.3 mg/kg
3,CN1C(=O)CN=C(c2ccccc2)c2cc(Cl)ccc21 [DIAZEPAM],5 mg/kg

# Biological target: GABA-A receptor; anion channel
# Test: In vitro affinity for BZD site on GABA-A receptor from rat cerebral cortex using radioligand [3H]flunitrazepam
# Assay type: tissue-based
# Details: not given
row,Structure (SMILES),IC50
1,CN(C)CCCN1C2=C(C(=O)Nc3ccccc3F)C(=O)CCN2c2ccc(F)cc21,3.3 nM
2,CCOCN1C2=C(C(=O)Nc3c(F)cccc3F)C(=O)CCN2c2ccc(F)cc21,0.6 nM
3,CN(C)CCN1C2=C(C(=O)Nc3ccccc3F)C(=O)CCN2c2ccc(F)cc21,49.9 nM
4,COCCNCCN1C2=C(C(=O)Nc3ccccc3F)C(=O)CCN2c2ccc(F)cc21,7.4 nM
5,O=C1CCN2C(=C1C(=O)Nc1ccccc1F)N(CCN1CCOCC1)c1cc(F)ccc12,6.1 nM
6,CCOCN1C2=C(C(=O)Nc3ccc(F)cc3F)C(=O)CCN2c2ccc(F)cc21,1.2 nM
7,CCOCN1C2=C(C(=O)Nc3ccccc3F)C(=O)CCN2c2ccc(F)cc21,0.1 nM
8,COCCOCN1C2=C(C(=O)Nc3ccccc3F)C(=O)CCN2c2ccc(F)cc21,0.8 nM

# System: Mus musculus
# Test: In vivo effective dose required for inhibition of pentylenetetrazole (PTZ)-induced seizures in mice intraperitoneally
# Assay type: functional
# Details: not given
row,Structure (SMILES),ED50
1,COCCOCN1C2=C(C(=O)Nc3ccccc3F)C(=O)CCN2c2ccc(F)cc21,0.003

# Same assay, conditions: Mus musculus, ip; read-out: ED50
row,Structure (SMILES),ED50
1,CCOCN1C2=C(C(=O)Nc3ccc(F)cc3F)C(=O)CCN2c2ccc(F)cc21,< 1 mg/kg
2,CN1C(=O)CN=C(c2ccccc2)c2cc(Cl)ccc21 [DIAZEPAM],0.3 mg/kg

# Biological target: T1, GABA-A receptor; anion channel (Rattus norvegicus)
# Test: Minimum effective dose required for anticonflict in rat intraperitoneally
# Assay type: functional
# Details: not given
row,Structure (SMILES),MED
1,CN(C)CCCN1C2=C(C(=O)Nc3ccccc3F)C(=O)CCN2c2ccc(F)cc21,10 mg/kg
2,CCOCN1C2=C(C(=O)Nc3c(F)cccc3F)C(=O)CCN2c2ccc(F)cc21,> 10 mg/kg
3,CN(C)CCN1C2=C(C(=O)Nc3ccccc3F)C(=O)CCN2c2ccc(F)cc21,< 10 mg/kg
4,COCCNCCN1C2=C(C(=O)Nc3ccccc3F)C(=O)CCN2c2ccc(F)cc21,10 mg/kg
5,O=C1CCN2C(=C1C(=O)Nc1ccccc1F)N(CCN1CCOCC1)c1cc(F)ccc12,> 10 mg/kg
6,O=C(Nc1ccccc1F)C1=C(O)CCn2c1nc1cc(F)ccc12,10 mg/kg
7,CCOCN1C2=C(C(=O)Nc3ccc(F)cc3F)C(=O)CCN2c2ccc(F)cc21,0.1 mg/kg
8,CCOCN1C2=C(C(=O)Nc3ccccc3F)C(=O)CCN2c2ccc(F)cc21,10 mg/kg
9,COCCOCN1C2=C(C(=O)Nc3ccccc3F)C(=O)CCN2c2ccc(F)cc21,< 10 mg/kg

# System: Rattus norvegicus
# Test: In vivo minimum effective dose required for anticonflict in rat intraperitoneally
# Assay type: functional
# Details: not given
row,Structure (SMILES),MED
1,COCCOCN1C2=C(C(=O)Nc3ccccc3F)C(=O)CCN2c2ccc(F)cc21,<=10

# Same assay, conditions: Rattus norvegicus, ip; read-out: MED
row,Structure (SMILES),minimal effective dose
1,CCOCN1C2=C(C(=O)Nc3ccc(F)cc3F)C(=O)CCN2c2ccc(F)cc21,0.1 mg/kg
2,CCOCN1C2=C(C(=O)Nc3ccccc3F)C(=O)CCN2c2ccc(F)cc21,10 mg/kg
3,CN1C(=O)CN=C(c2ccccc2)c2cc(Cl)ccc21 [DIAZEPAM],5 mg/kg

# System: Rattus norvegicus
# Test: In vivo minimum effective dose required for anticonflict effect in rat perorally
# Assay type: functional
# Details: not given
row,Structure (SMILES),MED
1,COCCOCN1C2=C(C(=O)Nc3ccccc3F)C(=O)CCN2c2ccc(F)cc21,3

# Same assay, conditions: Rattus norvegicus, po; read-out: MED
row,Structure (SMILES),minimal effective dose
1,CCOCN1C2=C(C(=O)Nc3ccc(F)cc3F)C(=O)CCN2c2ccc(F)cc21,0.1 mg/kg
2,CCOCN1C2=C(C(=O)Nc3ccccc3F)C(=O)CCN2c2ccc(F)cc21,0.4 mg/kg
3,CN1C(=O)CN=C(c2ccccc2)c2cc(Cl)ccc21 [DIAZEPAM],5 mg/kg

# Organism: Mus musculus
# Test: animal or person
# Details: po
row,Structure (SMILES),ED50
1,CN1C(=O)CN=C(c2ccccc2)c2cc(Cl)ccc21 [DIAZEPAM],0.5 mg/kg
